Results: patent US20100049117A1, “Microporator for Porating a Biological Membrane and Integrated Permeant Administering System” (PANTEC BIOSOLUTIONS AG, priority 2005, published 2010)

Assay: Serum concentration of drug over time after application onto microporated skin (FIG. 10a, 10b)
Format: in vivo
Details: for period of time of maximal serum concentration: transdermal
From the text: FIG. 10a, 10b show the serum concentration of a drug over time, with the same amount of drug but different permeation surfaces.
The drug is entering the permeation surface by passive diffusion. The amount of drug entering the permeation surface is mainly determined by the permeation surface A(t) over time. Therefore, the serum concentration as a function of time can be determined by an appropriate poration of the skin 1 with an initial microporation.
FIG. 10a to 10b show the administration of the same drug, for example 100 mg acetylsalicylic acid, the drug being arranged on the skin 1 as disclosed in FIG. 3c. Depending on the permeation surface A(t) as a function of time, the level of the serum concentration as well as the time period within which the drug is released, can be predescribed. In FIG. 10a the permeation surface A(t), not shown in detail, is chosen such that the maximal serum concentration is about 25 g/l over a short period of time of about two hours. […] A further advantage is that the same amount of drug, e.g. the same patch, applied onto the skin 1, causes a different serum concentration, depending only on the function of the permeation surface A over time. This allows administering the same drug in different ways. This also allows administering the same drug in an individual way, in that the initial permeation surface is created depending on individual parameters of the person the drug is applied to.

CC(=O)Oc1ccccc1C(=O)O [acetylsalicylic acid]
period of time of maximal serum concentration (FIG. 10a, 100 mg): about two
maximal serum concentration (FIG. 10b, 100 mg, fast application (turbo), patch on microporated skin (transdermal)): about 30 g/l
period of time of maximal serum concentration (FIG. 10b, 100 mg, fast application (turbo)): about two
course of serum concentration (oral application OA): heavy fluctuation
course of serum concentration (transdermal application TD): about constant value
